Assay results from patent US12492378B2, “Stepwise method of producing various types of cells from pluripotent stem cells” (Kyoto University, priority 2018, dated 2025).

Columns and labels:
PAX3-GFP iPS cells = test: Induction of presomitic mesoderm cells (PSM) from human iPS cells, FACS for DLL1 and PAX3-GFP; type: cell-based; settings: single factor, 10 μM CHIR99021, CDM basal medium, 4 days
Description: Fluorescence-activated cell sorting (FACS) was performed by AriaII (BD) according to the manufacturer's protocol. Intracellular flow cytometry analysis was also performed by AriaII (BD) according to the manufacturer's protocol. Briefly, cells were fixed and permeabilized prior to the antibody staining. The expression rate of each differentiation marker was calculated by comparing that of iPSCs or induced somite cells. To minimize the effect of growth factors secreted from feeder cells or contained in a culture medium, SNL feeders were removed from an iPS cell culture, and human iPS cells were seeded onto matrigel (BD, Bedford, MA, USA) coated dishes (1.3×10^6 cells/10-cm dish). The iPS cells were cultured under feeder-free condition with […]1 medium (STEMCELL Technology, Vancouver, Canada) for 3 days. The iPS cells were then cultured in CDM basal medium supplemented with one of four factors or the appropriate combination of the four factors for 4 days (FIG. 2B). The added factors are as follows. […] To detect the induction efficiency of presomitic mesoderm cells, the cell population positive for DLL1, a surface marker for a presomitic mesoderm cell and the posterior portion of somite, and negative for PAX3-GFP, showing a newly formed and segmented somite cell, were detected by FACS (FIG. 2C). […]

[1] = test system: DLL1+ presomitic mesoderm cells; test: Induction of somite cells (SM) from presomitic mesoderm cells; type: cell-based, human; settings: for PAX3-GFP+ cells: four days culture, FACS
Description: IPS cells were cultured in SCDF condition of Example 1 for 4 days, and a total of 1.0×10^5 DLL1^+ presomitic mesoderm cells sorted by FACS were seeded onto one well of a matrigel-coated 12-well plate and subsequently underwent the induction of somite cells (FIG. 3A). The induction of somite cells was carried out for 4 days in CDM basal medium supplemented with SB431542 and/or 5 μM CHIR99021. The medium was changed at day 3 of the induction of somite cells. The expression of PAX3-GFP was used as a somite cell marker. The added factors and their concentrations are as follows: • S10: SB431542 10 μM • C1: CHIR99021 1 μM • C5: […]20: FGF2 20 ng/ml • […]: IWR1 10 μM

dermomyotome cells = test: Induction of myotome cells (MYO) from dermomyotome cells; type: cell-based, human; settings: 5 μM CHIR99021, 30 days; number of MYOD- and MYOG-positive cells
Description: We next tried to induce myotome cells directly from dermomyotome cells obtained in the above (3). The medium of the dermomyotome cell culture obtained in (3) was replaced with CDM basal medium supplemented with 5 μM of CHIR99021, and the cell culture was further cultured. The medium was changed every 3 days, and the culture was performed for 30 days. A small amount of cultured cells was collected every 6 days, and the expression of myogenic markers MYOD, MYOG and PAX7 was examined over time. Induction of the myogenic markers was found 18 to 30 days after the replacement of the medium. On the other hand, the expression of the dermomyotome cell marker ALX4 was decreased in a time dependent manner (FIG. 4D). The expression of MYOD and MYOG was also determined by immunocytochemistry. The induction efficiency from dermomyotome cells into myotome cells was estimated at approximately 22% based on the number of MYOD- and MYOG-positive cells.

[2] = test system: somite cell-derived mesenchymal stromal cells induced from FOP-iPS cells; test: 2D chondrogenic induction of FOP-iPS cell-derived mesenchymal stromal cells; type: cell-based, human; settings: 5 days
Description: (§1) The GAG content in pellets was quantified with the Blyscan™ Glycosaminoglycan Assay Kit (Biocolor Ltd., Belfast, UK). The DNA content was quantified using the PicoGreen™ dsDNA Quantitation Kit (Invitrogen).
(§2) A total of 1.5×10^5 induced mesenchymal stromal cells or sclerotome cells were suspended in 5 μL of chondrogenic basal. medium (DMEM: F12 (Invitrogen), 1% (v/v) ITS+Premix (BD Biosciences, San Jose, CA, USA), 0.1 μM dexamethasone (WAKO), 0.17 mM L-Ascorbic acid 2-phosphate sesquimagnesium salt hydrate (Sigma), 0.35 mM Proline (Sigma), 0.15% (v/v) glucose (Sigma), 1 mM Na-pyruvate, 2 mM GlutaMax (Invitrogen) and 1% (v/v) FBS), and subsequently transferred to one well of a fibronectin-coated 24-well plate (BD Biosciences). After one hour of incubation at 37° C. in 5% CO2, cells formed micromass.
(§3) Then, the micromass was cultured in 1 ml of chondrogenic basal medium supplemented with 10 ng/ml BMP7 (R&D) and 10 ng/ml TGFβ3 (R&D) with or without 30 ng/ml Activin A (R&D) at 37° C. in 5% CO2 for 5 days.
The micromass induced from somite cell-derived mesenchymal stromal cells from FOP-iPS cells was also cultured in 1 mL of chondrogenic basal medium supplemented with 30 ng/ml Activin A (R&D) with/without 10 nM R667 (Toronto Research Chemicals, Toronto, ON, Canada) or 10 nM Rapamycin (MedChem Express, Monmouth Junction, NJ, USA).
(§4) Differentiation properties of obtained cells were analyzed by RT-qPCR analysis, glycosaminoglycans (GAG) quantification and Alcian Blue staining. Briefly, induced cells were fixed for 30 minutes with 4% paraformaldehyde (WAKO), rinsed with PBS, and then stained overnight with Alcian Blue solution (1% Alcian Blue, pH1) (MUTO PURE CHEMICAL CO., LTD, Tokyo, Japan).

heterotopic ossification = settings: reported, Hino et al., 2017; cited from earlier work
[3] = test system: somite cell-derived sclerotome cells; test: 2D chondrogenic induction of FOP-iPS cell-derived sclerotome cells; type: cell-based, human; settings: 30 ng/ml Activin A, 5 days
Description: as §1, §2, §3, §4

For `Cc1c[nH]c(-c2cnc(NCCNc3ccc(C#N)cn3)nc2-c2ccc(Cl)cc2Cl)n1` [CHIR99021, 6-[2-[4-(2,4-Dichlorophenyl)-5-(4-methyl-1H-imidazol-2-yl)pyrimidin-2-ylamino]ethylamino]pyridine-3-carbonitrile], the “DLL1+/PAX3-GFP- cells (induction efficiency)” value (PAX3-GFP iPS cells) was 56.3±3.1%, the “PAX3-GFP+ cells” value ([1]; 5 μM CHIR99021 (C5)) was 70.7±0.1% and the “PAX3-GFP+ cells” value ([1]; 10 μM CHIR99021 (C10)) was 0.3±0.0%. The “PARAXIS and MEOX1 expressions” value ([1]; S10C5 compared with S10I10 or S10, 4 days, RT-qPCR) was “highly induced”, the PARAXIS-expressing cells ([1]; immunohistochemistry using anti-PARAXIS (TCF15) antibody) was “found” and the “induction efficiency from dermomyotome cells into myotome cells” value (dermomyotome cells) was “approximately 22%”.

With `CC1(C)CCC(C)(C)c2cc(Cn3cccn3)c(/C=C/c3ccc(C(=O)O)cc3)cc21` [R667] the “enhanced chondrogenesis by Alcian Blue staining” value ([2]; 10 nM, with 30 ng/ml Activin A) was “inhibition of the enhanced chondrogenesis was also confirmed”, the “enhancement of glycosaminoglycan (GAG) production” value ([2]; 10 nM, with 30 ng/ml Activin A, GAG/DNA) was “significantly inhibited” and the “enhancement of chondrogenic marker expressions” value ([2]; 10 nM, with 30 ng/ml Activin A, RT-qPCR) was “significantly inhibited”. For the same molecule, the “inhibition of heterotopic ossification” value (heterotopic ossification) was “potent inhibitors”.

In the case of `NC(=O)c1ccc(-c2nc(-c3ccc4c(c3)OCO4)c(-c3ccccn3)[nH]2)cc1` [SB431542], the “PAX3-GFP+ cells” value ([1]; 10 μM SB431542 (S10)) is reported as 52.1±0.8%.

B1: Activin A: a stimulator of mutant ACVR1; R&D (protein, UniProt P08476 311-426, looked up)
Inhibin beta A chain: GLECDGKVNICCKKQFFVSFKDIGWNDWIIAPSGYHANYCEGECPSHIAGTSGSSLSFHSTVINHYRMRGHSPFANLKSCCVPTKLRPMSMLYYDDGQNIIKKDIQNMIVEECGCS
modifications: Inhibin beta A chain
notes: a stimulator of mutant ACVR1; R&D
With B1 the “chondrogenesis (chondrogenic markers, GAG production) in FOP-iPS-derived vs resFOP-iPS-derived cells” value ([2]; 30 ng/ml Activin A) was “enhancement of the chondrogenesis was observed” and the “chondrogenic marker expressions, GAG production and Alcian Blue staining in FOP-iPS-derived vs resFOP-iPS-derived cells” value [3] was “no difference”.
